The values below come from patent US20100130738A1 (priority 2007, published 2010).

The target in experiment [1] is T1, PDE4Bcat (Homo sapiens, UniProt Q07343).
T1 construct: made in house; host or cells: Sf9 insect cells (baculovirus, Bac-to-Bac / Gateway)
Kind of experiment: Phosphodiesterase inhibitory activity, recombinant PDE4Bcat, [3H]cAMP. Particulars: 30° C. 20 minutes, read-out: IC50 (μmol/L) PDE4. The format is biochemical.

Experiment [2] has as its system histamine-induced bronchoconstriction in guinea pigs. Put plainly: Histamine-induced bronchoconstriction reaction in guinea pigs. The format is in vivo, guinea pig. Particulars: Cavia porcellus, iv, 0.5 min, compound 0.3 mg/kg i.v., measured 30 seconds after administration, histamine 12.5 μg/kg i.v., read-out: Inhibition rate (histamine-induced bronchoconstriction). As for the experimental part:
Guinea pigs were anesthetized with pentobarbital (30 mg/kg, i.p.). A cannula for intravenous administration, a cannula for collecting blood and measuring blood pressure, and a tracheal cannula were inserted into the left external jugular vein, right internal carotid artery, and trachea, respectively. The guinea pigs were maintained on artificial respiration under conditions of 60 times/min and 10 mL/kg/stroke. The overflowing air from the side branch of the tracheal cannula was measured by a bronchospasm transducer (Ugo-Basile) and recorded on a computer via Power Lab (ADInstruments Japan). The guinea pigs were immobilized with gallamine (10 mg/kg, i.v.), and histamine (12.5 μg/kg, i.v.) was administered at 10-minute intervals. After the histamine-induced bronchoconstriction became stable, the compound (0.3 mg/kg, i.v.) was administered. The histamine-induced bronchoconstriction reaction was measured 30 seconds after the compound administration to examine the bronchoconstriction inhibitory activity of the compound. The bronchoconstriction was recorded as the airflow value, and the results were represented by the ratio of the maximum value of the histamine-induced airflow 30 seconds after administration to the maximum value of the airflow before administration. Also, the test compounds dissolved in DMSO were used. Further, the indications were as follows: inhibition rate≧90% (+++), 90%>inhibition rate≧80% (++), and 80%>inhibition rate≧60% (+).

Experiment [3] concerns the target T2, PDE3A catalytic domain (PDE3Acat) (Homo sapiens, UniProt Q14432).
T2 construct: isolate the cDNA of a PDE3A catalytic domain; made in house; host or cells: Sf9 insect cells (baculovirus, Bac-to-Bac / Gateway)
Kind of experiment: Phosphodiesterase inhibitory activity, recombinant PDE3Acat, [3H]cAMP. Type of experiment: biochemical. Particulars: 30° C. 20 minutes, read-out: IC50 (μmol/L) PDE3.

Each structure is given as a SMILES string.

T2 sequence (Q14432 674-1093 limits assumed): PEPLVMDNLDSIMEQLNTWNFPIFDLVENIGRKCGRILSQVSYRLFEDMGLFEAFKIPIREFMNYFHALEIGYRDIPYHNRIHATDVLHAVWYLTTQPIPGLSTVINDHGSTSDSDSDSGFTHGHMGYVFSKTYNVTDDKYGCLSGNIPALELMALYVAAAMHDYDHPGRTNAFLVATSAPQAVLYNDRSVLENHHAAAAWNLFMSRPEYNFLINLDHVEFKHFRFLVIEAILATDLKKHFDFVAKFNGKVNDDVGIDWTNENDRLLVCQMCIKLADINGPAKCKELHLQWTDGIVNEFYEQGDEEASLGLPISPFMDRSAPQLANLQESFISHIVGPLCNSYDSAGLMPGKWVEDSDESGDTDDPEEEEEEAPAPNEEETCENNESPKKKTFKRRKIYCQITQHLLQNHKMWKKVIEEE
T1 sequence (Q07343 330-659 limits assumed): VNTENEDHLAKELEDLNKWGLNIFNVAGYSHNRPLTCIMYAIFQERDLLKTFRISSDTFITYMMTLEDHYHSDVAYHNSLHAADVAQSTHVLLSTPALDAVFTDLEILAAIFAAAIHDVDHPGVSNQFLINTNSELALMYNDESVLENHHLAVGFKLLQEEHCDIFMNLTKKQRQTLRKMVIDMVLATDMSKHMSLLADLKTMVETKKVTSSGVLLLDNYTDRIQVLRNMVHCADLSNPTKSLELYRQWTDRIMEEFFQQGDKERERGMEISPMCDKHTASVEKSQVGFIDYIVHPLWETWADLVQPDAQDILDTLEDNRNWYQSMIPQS

For the compound `COc1ccc(C2=NN(CCCCOc3ccc(C4=NNC(=O)CC4C)cc3)C(=O)C2(C)C)c2ccc(C)nc12` (stereo not drawn) [Example 193, 5-(8-Methoxy-2-methylquinolin-5-yl)-2-[4-[4-(4-methyl-6-oxo-1,4,5,6-tetrahydropyridazin-3-yl)phenoxy]butyl]-4,4-dimethyl-4,4-dihydro-pyrazol-3-one], the IC50 in experiment [1] and in experiment [3] was 0.01 to 0.1 µmol/L in each case. Moreover, the inhibition in vivo at 0.3 mg/kg in experiment [2] is not below 90%.

As to `CCc1ccc2c(C3=NN(CCCCOc4ccc(C5=NNC(=O)CC5C)cc4)C(=O)C3(C)C)ccc(OC)c2n1` (stereo not drawn) [Example 194, 5-(2-Ethyl-8-methoxyquinolin-5-yl)-2-[4-[4-(4-methyl-6-oxo-1,4,5,6-tetrahydropyridazin-3-yl)phenoxy]butyl]-4,4-dimethyl-2,4-dihydro-pyrazol-3-one], the IC50 in experiment [1] and in experiment [3] was 0.01 to 0.1 µmol/L each time. For the same compound, in experiment [2], the inhibition in vivo at 0.3 mg/kg was not below 90%.

As to `COc1ccc(C2=NN(CCCCOc3ccc(C4=NNC(=O)CC4C)cc3)C(=O)C2(C)C)c2ccc(C(C)C)nc12` (stereo not drawn) [Example 195, 5-(8-Methoxy-2-isopropylquinolin-5-yl)-2-[4-[4-(4-methyl-6-oxo-1,4,5,6-tetrahydropyridazin-3-yl)phenoxy]butyl]-4,4-dimethyl-2,4-dihydro-pyrazol-3-one], the values for the IC50 in experiment [1] and in experiment [3] were 0.1 to 1 µmol/L and less than 0.01 µmol/L, respectively.

For `COc1ccc(C2=NN(CCCCOc3ccc(C4=NNC(=O)CC4C)c(F)c3F)C(=O)C2(C)C)c2ccc(C)nc12` (stereo not drawn) [Example 196, 2-[4-[2,3-Difluoro-4-(4-methyl-6-oxo-1,4,5,6-tetrahydropyridazin-3-yl)phenoxy]butyl]-5-(8-methoxy-2-methylquinolin-5-yl)-4,4-dimethyl-2,4-dihydro-pyrazol-3-one], the results for the IC50 in experiment [1] and in experiment [3] were 0.01 to 0.1 µmol/L and less than 0.01 µmol/L, respectively. In addition, the inhibition in vivo at 0.3 mg/kg in experiment [2] was not below 90%.

As for `CCc1ccc2c(C3=NN(CCCCOc4ccc(C5=NNC(=O)CC5)c(F)c4F)C(=O)C3(C)C)ccc(OC)c2n1` [Example 198, 5-(2-Ethyl-8-methoxyquinolin-5-yl)-2-[4-[2,3-difluoro-4-(6-oxo-1,4,5,6-tetrahydropyridazin-3-yl)phenoxy]butyl]-4,4-dimethyl-2,4-dihydro-pyrazol-3-one], the IC50 in experiment [1] is 0.01 to 0.1 µmol/L; in experiment [3], less than 0.01 µmol/L. Also, in experiment [2], the inhibition in vivo at 0.3 mg/kg was not below 90%.

Take `CCc1ccc2c(C3=NN(CCCCOc4ccc(C5=NNC(=O)C5(C)C)cc4)C(=O)C3(C)C)ccc(OC)c2n1` [Example 201, 5-(2-Ethyl-8-methoxyquinolin-5-yl)-2-[4-[4-(4,4-dimethyl-5-oxo-4,5-dihydro-1H-pyrazol-3-yl)phenoxy]butyl]-4,4-dimethyl-2,4-dihydro-pyrazol-3-one]: the IC50 in experiment [1] was in the range of 0.01 to 0.1 µmol/L; in experiment [3], 0.1 to 1 µmol/L.

For `CCc1ccc2c(C3=NN(CCCCOc4ccc(C5=NNC(=O)C5(C)C)cc4OC)C(=O)C3(C)C)ccc(OC)c2n1` [Example 204, 5-(2-Ethyl-8-methoxyquinolin-5-yl)-2-[4-[2-methoxy-4-(4,4-dimethyl-5-oxo-4,5-dihydro-1H-pyrazol-3-yl)phenoxy]butyl]-4,4-dimethyl-2,4-dihydro-pyrazol-3-one], the IC50 in experiment [1] and in experiment [3] was 0.1 to 1 µmol/L in each case.

Take `CCc1ccc2c(C3=NN(CCCCOc4ccc(C5=NNC(=O)CC5C)cc4OC)C(=O)C3(C)C)ccc(OC)c2n1` (stereo not drawn) [Example 208, 5-(2-Ethyl-8-methoxyquinolin-5-yl)-2-[4-[2-methoxy-4-(4-methyl-6-oxo-1,4,5,6-tetrahydropyridazin-3-yl)phenoxy]butyl]-4,4-dimethyl-2,4-dihydro-pyrazol-3-one]: the results for the IC50 in experiment [1] and in experiment [3] were 0.1 to 1 µmol/L and 0.01 to 0.1 µmol/L, respectively.

In the case of `COc1ccc(C2=NN(CCCCOc3ccc(C4=NNC(=O)CC4)c(F)c3F)C(=O)C2(C)C)c2cc(C(F)(F)F)oc12` [Example 216, 2-[4-[2,3-Difluoro-4-(6-oxo-1,4,5,6-tetrahydropyridazin-3-yl)phenoxy]butyl]-5-(7-methoxy-2-trifluoromethylbenzofuran-4-yl)-4,4-dimethyl-2,4-dihydro-pyrazol-3-one], the IC50 in experiment [1] and in experiment [3] was less than 0.01 µmol/L in each case.

For `COc1ccc(C2=NN(CCCCOc3ccc(C4=NNC(=O)C4(C)C)c(F)c3F)C(=O)C2(C)C)c2cc(C(F)(F)F)oc12` [Example 217, 2-[4-[2,3-Difluoro-4-(4,4-dimethyl-5-oxo-4,5-dihydro-1H-pyrazol-3-yl)phenoxy]butyl]-5-(7-methoxy-2-trifluoromethylbenzofuran-4-yl)-4,4-dimethyl-2,4-dihydro-pyrazol-3-one], the IC50 in experiment [1] was less than 0.01 µmol/L; in experiment [3], 0.1 to 1 µmol/L.

As to `COc1ccc(C2=NN(CCCCOc3ccc(C4=NNC(=O)CC4C)c(F)c3F)C(=O)C2(C)C)c2cc(C(F)(F)F)oc12` (stereo not drawn) [Example 218, 2-[4-[2,3-Difluoro-4-(4-methyl-6-oxo-1,4,5,6-tetrahydropyridazin-3-yl)phenoxy]butyl]-5-(7-methoxy-2-trifluoromethylbenzofuran-4-yl)-4,4-dimethyl-2,4-dihydro-pyrazol-3-one], the IC50 in experiment [1] and in experiment [3] was less than 0.01 µmol/L in each case.

Regarding `COc1ccc(C2=NN(CCCCOc3ccc(C4=NNC(=O)CC4C)c(F)c3F)C(=O)C2(C)C)c2nc(C(F)(F)F)nn12` (stereo not drawn) [Example 225, 2-[4-[2,3-Difluoro-4-(4-methyl-6-oxo-1,4,5,6-tetrahydropyridazin-3-yl)phenoxy]butyl]-5-(5-methoxy-2-trifluoromethyl-[1,2,4]triazolo[1,5-a]pyridin-8-yl)-4,4-dimethyl-2,4-dihydro-pyrazol-3-one], the IC50 in experiment [1] is 0.01 to 0.1 µmol/L; in experiment [3], less than 0.01 µmol/L.

Turning to `COc1ccc(C2=NN(CCCCOc3ccc(C4=NNC(=O)CC4)c(F)c3F)C(=O)C2(C)C)c2nc(C(F)(F)F)nn12` [Example 226, 2-[4-[2,3-Difluoro-4-(6-oxo-1,4,5,6-tetrahydropyridazin-3-yl)phenoxy]butyl]-5-(5-methoxy-2-trifluoromethyl-[1,2,4]triazolo[1,5-a]pyridin-8-yl)-4,4-dimethyl-2,4-dihydro-pyrazol-3-one], the figures for the IC50 in experiment [1] and in experiment [3] were 0.01 to 0.1 µmol/L and less than 0.01 µmol/L, respectively.

`COc1ccc(C2=NN(CCCCOc3ccc(C4=NNC(=O)C4(C)C)c(F)c3F)C(=O)C2(C)C)c2nc(C(F)(F)F)nn12` [Example 227, 2-[4-[2,3-Difluoro-4-(4,4-dimethyl-5-oxo-4,5-dihydro-1H-pyrazol-3-yl)phenoxy]butyl]-5-(5-methoxy-2-trifluoromethyl-[1,2,4]triazolo[1,5-a]pyridin-8-yl)-4,4-dimethyl-2,4-dihydro-pyrazol-3-one]: the results for the IC50 in experiment [1] and in experiment [3] were 0.1 to 1 µmol/L and 0.01 to 0.1 µmol/L, respectively.

As for `COc1ccc(C2=NN(CCCCOc3ccc(C4=NNC(=O)C4(C)C)c(F)c3F)C(=O)C2(C)C)c2sc(C(F)(F)F)nc12` [Example 230, 2-[4-[2,3-Difluoro-4-(4,4-dimethyl-5-oxo-4,5-dihydro-1H-pyrazol-3-yl)phenoxy]butyl]-5-(4-methoxy-2-trifluoromethylbenzo[d]thiazol-7-yl)-4,4-dimethyl-2,4-dihydro-pyrazol-3-one], the IC50 in experiment [1] was less than 0.01 µmol/L; in experiment [3], 0.01 to 0.1 µmol/L.

On to `CCc1cc2c(C3=NN(CCCCOc4ccc(C5=NNC(=O)CC5C)c(F)c4F)C(=O)C3(C)C)ccc(OC)n2c1` (stereo not drawn) [Example 231, 5-(2-Ethyl-5-methoxyindolidin-8-yl)-2-[4-[2,3-difluoro-4-(4-methyl-6-oxo-1,4,5,6-tetrahydropyridazin-3-yl)phenoxy]butyl]-4,4-dimethyl-2,4-dihydro-pyrazol-3-one], for which the IC50 was 0.1 to 1 µmol/L in experiment [1] and less than 0.01 µmol/L in experiment [3].

Take `CCc1cc2c(C3=NN(CCCCOc4ccc(C5=NNC(=O)CC5)c(F)c4F)C(=O)C3(C)C)ccc(OC)n2c1` [Example 232, 5-(2-Ethyl-5-methoxyindolidin-8-yl)-2-[4-[2,3-difluoro-4-(6-oxo-1,4,5,6-tetrahydropyridazin-3-yl)phenoxy]butyl]-4,4-dimethyl-2,4-dihydro-pyrazol-3-one]: the values for the IC50 in experiment [1] and in experiment [3] were 0.01 to 0.1 µmol/L and less than 0.01 µmol/L, respectively.

In the case of `CCc1cc2c(C3=NN(CCCCOc4ccc(C5=NNC(=O)C5(C)C)c(F)c4F)C(=O)C3(C)C)ccc(OC)n2c1` [Example 233, 5-(2-Ethyl-5-methoxyindolidin-8-yl)-2-[4-[2,3-difluoro-4-(4,4-dimethyl-5-oxo-4,5-dihydro-1H-pyrazol-3-yl)phenoxy]butyl]-4,4-dimethyl-2,4-dihydro-pyrazol-3-one], the IC50 was 0.1 to 1 µmol/L in experiment [1] and 0.01 to 0.1 µmol/L in experiment [3].

`CCc1ccc2c(C3=NN(CCOc4ccc(C5=NNC(=O)CC5C)c(F)c4F)C(=O)C3(C)C)ccc(OC)c2n1` (stereo not drawn) [Example 242, 5-(2-Ethyl-8-methoxyquinolin-5-yl)-2-[4-[2,3-difluoro-4-(4-methyl-6-oxo-1,4,5,6-tetrahydropyridazin-3-yl)phenoxy]ethyl]-4,4-dimethyl-2,4-dihydro-pyrazol-3-one]: the IC50 in experiment [1] is 0.01 to 0.1 µmol/L; in experiment [3], less than 0.01 µmol/L.
